Source: the NIST ThermoML archive (doi:10.1016/j.tca.2012.01.024)
Numbers after ± are expanded uncertainties.

Assay: excess molar enthalpy (molar enthalpy of mixing); xn = mol fraction of the nth substance listed
Conditions: 1273.2 K, 101 kPa, Liquid, Calvet calorimetry

For `[Sb]` [antimony] + [Sn], the excess molar enthalpy (x1 = 0.2665) was -0.257 ± 0.00287 kcal/mol, the excess molar enthalpy (x1 = 0.4886) was -0.315 ± 0.00335 kcal/mol and the excess molar enthalpy (x1 = 0.7372) was -0.233 ± 0.00263 kcal/mol.
With `[Ni]` [nickel] + [Sb] the excess molar enthalpy (x1 = 0.2109) was -2.58 ± 0.0263 kcal/mol.
For `[Ni]` [nickel] + [Sn], the excess molar enthalpy (x1 = 0.213) was -2.29 ± 0.0232 kcal/mol.
